Molecules are shown by their SMILES. *1 amine or outer side, *2 acyl side, *3 side chain or, on linkers, in order; H or OH if unused. Where a SMILES comes first, the peptide text is derived from it. Bridges are numbered along the chain shown (N, C = ends). [ ]: non-standard residue; d: D form. cBu(1-CO,cis-3-CH2NH) = O=C([C@H]1C[C@@H](CN[*:1])C1)[*:2]; X48 = CCCC[C@@H](/C=C\[C@@H](Cc1cccnc1)C(=O)[*:2])N[*:1]; NMeNva(5-imidazol-1-yl) = CN[C@@H](CCCn1ccnc1)C(=O)O; Phe(4-guanidino) = N=C(N)Nc1ccc(C[C@H](N)C(=O)O)cc1; X72 = CC1(C)NC(=N)N(CCC[C@H](N[*:1])C(=O)[*:2])C1=O; X59 = O=C([C@H](Cc1ccc(CN2CCCC2)cc1)N[*:1])[*:2]; X49 = O=C(O)Cc1cccc(C[C@H](N[*:1])C(=O)[*:2])c1; Ala(pyrimidin-5-yl) = N[C@@H](Cc1cncnc1)C(=O)O; X42 = O=C([C@H](Cc1cc(F)ncc1F)N[*:1])[*:2]; Abu(4,4,4-F3) = N[C@@H](CC(F)(F)F)C(=O)O; Phe(4-Cl) = N[C@@H](Cc1ccc(Cl)cc1)C(=O)O; Nle(5,5-F2) = CC(F)(F)CC[C@H](N)C(=O)O; X28 = O=C([C@H](Cc1ncccn1)N[*:1])[*:2]; 1Nal = N[C@@H](Cc1cccc2ccccc12)C(=O)O; NHCH2CH2SCH2CO = O=C(CSCCN[*:1])[*:2]; Phe(2-F) = N[C@@H](Cc1ccccc1F)C(=O)O; NMe3Pal = CN[C@@H](Cc1cccnc1)C(=O)O; X1 = O=C(C12CC(CN[*:1])(C1)C2)[*:2]; Ala(cPr) = N[C@@H](CC1CC1)C(=O)O; NMeF = CN[C@@H](Cc1ccccc1)C(=O)O; PhLac = O=C(O)[C@@H](O)Cc1ccccc1; 3Pal = N[C@@H](Cc1cccnc1)C(=O)O; d3Pal = N[C@H](Cc1cccnc1)C(=O)O; Ahp(2) = CCCCC[C@H](N)C(=O)O; Cba = N[C@@H](CC1CCC1)C(=O)O; hLeu = CC(C)CC[C@H](N)C(=O)O; αMeC = C[C@](N)(CS)C(=O)O; NMeA = CN[C@@H](C)C(=O)O; Nle = CCCC[C@H](N)C(=O)O

This assay deals with KRAS-G12D protein (Homo sapiens, UniProt P01116, G12D). Description: SOS-mediated nucleotide exchange assay (BODIPY-GDP / Tb-streptavidin TR-FRET). The assay is classed as biochemical. (In TR-FRET formats the signal depends on donor and acceptor labels being close together.)
Sequence of KRAS-G12D protein (P01116 1-188 isoform P01116-2 G12D): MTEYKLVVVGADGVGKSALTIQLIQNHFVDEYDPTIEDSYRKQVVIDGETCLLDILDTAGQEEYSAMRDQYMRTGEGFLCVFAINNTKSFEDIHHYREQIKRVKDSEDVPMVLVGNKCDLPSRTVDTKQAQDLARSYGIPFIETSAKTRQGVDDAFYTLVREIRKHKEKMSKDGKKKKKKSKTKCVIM
As a reminder, the EC50 is the concentration at which the effect is half-maximal. Read a high EC50 as weaker potency. Turning to `C[C@H]1C(=O)N[C@@H](Cc2cncnc2)C(=O)N[C@@H](CC2CC2)C(=O)N[C@@H](Cc2ccccc2F)C(=O)N[C@@H](CCC(C)(F)F)C(=O)N(C)[C@@H](Cc2ccccc2)C(=O)NCC23CC(C2)(C3)C(=O)O[C@@H](Cc2ccccc2)C(=O)N1C` [compound 276, cyclo(FLac-NMeA-PyrimAla-cPrA-Phe2F-Nle3F2-NMeF-amBCP)] (cyclo([Ala(cPr)][Phe(2-F)][Nle(5,5-F2)][NMeF][X1][PhLac][NMeA][Ala(pyrimidin-5-yl)])), the response was half-maximal at 0.001 µM (EC50). The molecule `CCCC[C@@H]1NC(=O)[C@H](Cc2ccc(NC(=N)N)cc2)NC(=O)[C@H](CCCNC(=N)N)NC(=O)[C@H](Cc2cccc3ccccc23)NC(=O)CNC(=O)[C@@H](C)NC(=O)[C@H](Cc2ccccc2)N(C)C(=O)[C@H](CCCC)NC(=O)[C@H](Cc2ccc(O)cc2)NC1=O` [compound 200, cyclo(1Nal-R-Phe4Gn-Nle-Y-Nle-NMeF-dA-G)] (cyclo([1Nal]R[Phe(4-guanidino)][Nle]Y[Nle][NMeF][dA]G)) showed an EC50 of 0.0529 µM. To `CC(C)CC[C@@H]1NC(=O)[C@H](Cc2cc(F)ncc2F)NC(=O)[C@H](CC2CC2)NC(=O)[C@H](Cc2cncnc2)NC(=O)[C@H](C)N(C)C(=O)[C@H](Cc2ccccc2)OC(=O)C23CC(CNC(=O)[C@H](Cc4ccccc4)N(C)C1=O)(C2)C3` [compound 280, cyclo(FLac-NMcA-PyrimAla-cPrA-4Pal25F2-hL-NMeF-amBCP)] (cyclo([Ala(cPr)][X42][hLeu][NMeF][X1][PhLac][NMeA][Ala(pyrimidin-5-yl)])) belongs 0.004 µM. `CCCC[C@H]1/C=C\[C@@H](Cc2cccnc2)C(=O)NCC23CC(C2)(C3)C(=O)O[C@@H](Cc2ccccc2)C(=O)N(C)[C@@H](C)C(=O)N[C@@H](Cc2cncnc2)C(=O)N[C@@H](CCCC)C(=O)N[C@@H](Cc2ccccc2F)C(=O)N1` [SEQ ID NO: 137, cyclo(FLac-NMeA- PyrimAla-Nle-Phe2F- Nlecalken3Pal-amBCP)] (cyclo([NMeA][Ala(pyrimidin-5-yl)][Nle][Phe(2-F)][X48][X1][PhLac])): the EC50 worked out at 0.59 µM. For `CCCCC[C@@H]1NC(=O)[C@H](Cc2ccc(O)cc2)NC(=O)[C@H](CC(C)C)NC(=O)[C@H](Cc2ccc(O)cc2)NC(=O)[C@H](CCCNC(=N)N)NC(=O)[C@H](Cc2ccccc2)NC(=O)CSC[C@@H](C(=O)NCC(=O)N[C@@H](CCCCN)C(=O)N[C@@H](CCCCN)C(N)=O)NC(=O)[C@H](Cc2ccccc2)N(C)C1=O` [compound 56, cyclo(F-R-Y-L-Y-Ahp-NMeF-C2-ClAc)] ({CH2CO}-FRYLY[Ahp(2)][NMeF]CGKK-NH2; thioether N-8) the value was 0.534 µM; for `CCCCC[C@@H]1NC(=O)[C@H](Cc2ccc(OC)cc2)NC(=O)[C@H](CC2CCC2)NC(=O)[C@H](Cc2cccnc2)NC(=O)[C@H](CCCNC(=N)N)NC(=O)[C@H](Cc2ccccc2)OC(=O)C23CC(CNC(=O)[C@H](Cc4ccccc4)N(C)C1=O)(C2)C3` [compound 211, cyclo(FLac-R-3Pal-cBuA-TyrOMe-Ahp-NMeF-amBCP)] (cyclo([PhLac]R[3Pal][Cba]Y(Me)[Ahp(2)][NMeF][X1])), 0.0108 µM; for `CCCC[C@@H]1NC(=O)[C@H](Cc2ccccc2F)NC(=O)[C@H](CC2CCC2)NC(=O)[C@@H](Cc2cccnc2)NC(=O)[C@H](CCCN2C(=N)NC(C)(C)C2=O)NC(=O)[C@H](Cc2ccccc2)NC(=O)C23CC(CNC(=O)[C@H](Cc4cccnc4)N(C)C1=O)(C2)C3` [compound 105, cyclo(F-baceNva-d3Pal-cBuA-Phe2F-Nle-NMe3Pal-amBCP)] (cyclo(F[X72][d3Pal][Cba][Phe(2-F)][Nle][NMe3Pal][X1])), 0.00756 µM. For `CC(C)CC[C@@H]1NC(=O)[C@H](Cc2ccccc2F)NC(=O)[C@H](CC2CC2)NC(=O)[C@H](Cc2ncccn2)NC(=O)[C@H](C)N(C)C(=O)[C@H](Cc2ccccc2)OC(=O)C23CC(CNC(=O)[C@H](Cc4ccccc4)N(C)C1=O)(C2)C3` [compound 281, cyclo(FLac-NMeA-2PyrimAla-cPrA-Phe2F-hL-NMeF-amBCP)] (cyclo([Ala(cPr)][Phe(2-F)][hLeu][NMeF][X1][PhLac][NMeA][X28])) the value was 1.21 µM; for `CCCCC[C@@H]1NC(=O)[C@H](Cc2ccc(OC)cc2)NC(=O)[C@H](CC2CCC2)NC(=O)[C@H](Cc2ccc(C)nc2)NC(=O)[C@H](CCCNC(=N)N)NC(=O)[C@H](Cc2ccccc2)NC(=O)CSC[C@@](C)(C(N)=O)NC(=O)[C@H](Cc2ccccc2)N(C)C1=O` [compound 364, cyclo(F-R-4Me3Pal-cBuA-TyrOMe-Ahp-NMeF-aMeCl-ClAc)], 0.0335 µM.

With `C[C@H]1C(=O)N[C@@H](Cc2cncnc2)C(=O)N[C@@H](CC2CC2)C(=O)N[C@@H](Cc2ccccc2F)C(=O)NC2CC/C=C\CC[C@@H](C(=O)NCC34CC(C3)(C4)C(=O)O[C@@H](Cc3ccccc3)C(=O)N1C)N(C)C2=O` [SEQ ID NO: 182, cyclo(FLac-NMeA-PyrimAla-cPrA-Phe2F-Hag-NMeHag-amBCP)], the EC50 came out at 0.225 µM.

The molecule `CCCC[C@@H]1NC(=O)[C@H](CC(F)(F)F)NC(=O)[C@H](CC2CCC2)NC(=O)[C@H](Cc2cccnc2)NC(=O)[C@H](CCCNC(=N)N)NC(=O)[C@H](Cc2ccccc2)NC(=O)CSC[C@@](C)(C(N)=O)NC(=O)[C@H](Cc2ccccc2)N(C)C1=O` [compound 54, cyclo(F-R-3Pal-cBuA-AbuF3-Nle-NMeF-aMeCl-ClAc)] ({CH2CO}-FR[3Pal][Cba][Abu(4,4,4-F3)][Nle][NMeF][αMeC]-NH2; thioether N-8) gave an EC50 of 0.861 µM.

The molecule `CCCC[C@@H]1NC(=O)[C@H](Cc2ccc(O)cc2)NC(=O)[C@H](CC(C)C)NC(=O)[C@H](Cc2ccc(O)cc2)NC(=O)[C@H](CCCNC(=N)N)NC(=O)[C@H](Cc2ccc(Cl)cc2)NC(=O)CSCCNC(=O)[C@H](Cc2ccccc2)N(C)C1=O` [compound 74, cyclo(-Phe4Cl-R-Y-L-Y-Nle-NMeF-Cysteamine-ClAc)] (cyclo(LY[Nle][NMeF][NHCH2CH2SCH2CO][Phe(4-Cl)]RY)) came in with an EC50 of 7.07 µM. As for `CCCC[C@@H]1NC(=O)[C@H](Cc2ccc(CN3CCCC3)cc2)NC(=O)[C@H](CCCn2ccnc2)N(C)C(=O)[C@H](Cc2ccccc2)NC(=O)[C@H]2C[C@@H](CNC(=O)[C@H](Cc3cccnc3)N(C)C(=O)[C@H](CCCC)NC(=O)[C@H](Cc3ccccc3F)NC1=O)C2` [compound 266, cyclo(F-NMeNvalmid-Phe4cPyrr-Nle-Phe2F-Nle-NMe3Pal-c3amCb1c)] (cyclo(F[NMeNva(5-imidazol-1-yl)][X59][Nle][Phe(2-F)][Nle][NMe3Pal][cBu(1-CO,cis-3-CH2NH)])), a half-maximal effect (EC50) was put at 0.215 µM. For `CCCC[C@@H]1NC(=O)[C@H](CCCCN)NC(=O)[C@H](CCCNC(=N)N)NC(=O)[C@H](Cc2cccc3ccccc23)NC(=O)CSCCNC(=O)[C@H](Cc2ccccc2)N(C)C(=O)[C@H](CCCC)NC(=O)[C@H](Cc2cccc(CC(=O)O)c2)NC1=O` [compound 196, cyclo(INal-R-K-Nle-Phe3AcOH-Nle-NMeF-Cysteamine-ClAc)] (cyclo([1Nal]RK[Nle][X49][Nle][NMeF][NHCH2CH2SCH2CO])), the midpoint of the response, the EC50, lay at 2.65 µM. As for `CCCCC[C@@H]1NC(=O)[C@H](Cc2ccc(OC)cc2)NC(=O)[C@H](CC2CCC2)NC(=O)[C@H](Cc2ccc(-c3cccnc3N)cc2)NC(=O)[C@H](CCCNC(=N)N)NC(=O)[C@H](Cc2ccccc2)NC(=O)CSC[C@@](C)(C(N)=O)NC(=O)[C@H](Cc2ccccc2)N(C)C1=O` [compound 390, cyclo(F-R-Phe43PyNH2-cBuA-TyrOMe-Ahp-NMeF-aMeCl-ClAc)], the EC50 worked out at 0.00917 µM.
